According to ChEMBL document CHEMBL1201862, “PubChem BioAssay data set” (2004):
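Cells were grown in 96-well plates and exposed to each compound for 48 hours at five concentrations; endpoints were interpolated linearly between bracketing concentrations, or set to the highest concentration if not reached. GI50 is the concentration that inhibits growth by half.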 Active and inactive are the calls of the source. No stated cut-off is given here; in the data, active = GI50 up to about 1.1 µM and inactive = higher.

Columns and labels:
Assay in all cases: NCI-60 cell line screen, 48 h
[1] = test system: KM12
[2] = test system: NCI/ADR-RES
[3] = test system: HCC 2998
[4] = test system: UACC-257
[5] = test system: HOP-92
[6] = test system: UO-31
[7] = test system: SF-539
[8] = test system: OVCAR-4
[9] = test system: SNB-75
[10] = test system: MCF7
[11] = test system: NCI-H522
[12] = test system: PC-3
[13] = test system: M14
[14] = test system: 786-0
[15] = test system: OVCAR-5
[16] = test system: MDA-MB-435
[17] = test system: ACHN
[18] = test system: SK-MEL-28
[19] = test system: MDA-N
[20] = test system: BT-549

Measured: GI50

Cc1cccc2c(O)c3c(O)cc(O)cc3nc12
inactive: [1] > 10 µM | [2] > 10 µM | [3] > 10 µM | [4] > 10 µM | [5] > 10 µM | [6] > 10 µM | [7] 6.12 µM | [8] > 10 µM | [9] 7.24 µM | [10] > 10 µM | [11] > 10 µM | [12] > 10 µM | [13] > 10 µM | [14] > 10 µM | [15] > 10 µM | [16] > 10 µM | [17] > 10 µM | [18] > 10 µM | [19] > 10 µM | [20] 3.61 µM

COc1cccc2c1OC1c3ccccc3OCC1(O)C2 (centres undefined)
inactive: [1] > 100 µM | [2] > 100 µM | [3] > 100 µM | [4] > 100 µM | [5] > 100 µM | [6] > 100 µM | [7] > 100 µM | [8] > 100 µM | [9] > 100 µM | [10] > 100 µM | [11] > 100 µM | [12] > 100 µM | [13] > 100 µM | [14] > 100 µM | [15] > 100 µM | [16] > 100 µM | [17] > 100 µM | [19] > 100 µM | [20] > 100 µM

O=C(O)C1CC=CCC1C(=O)Nc1cccc(O)c1 (centres undefined)
inactive: [1] > 100 µM | [2] > 100 µM | [3] > 100 µM | [4] > 100 µM | [5] > 100 µM | [6] > 100 µM | [7] > 100 µM | [8] > 100 µM | [9] > 100 µM | [10] > 100 µM | [11] > 100 µM | [12] > 100 µM | [13] > 100 µM | [14] > 100 µM | [15] > 100 µM | [16] > 100 µM | [17] > 100 µM | [18] > 100 µM | [19] > 100 µM | [20] > 100 µM

CSC(=NC1=NC(C(F)(F)F)(C(F)(F)F)N=C(c2ccccc2)O1)SC
inactive: [1] 4.91 µM | [2] 5.31 µM | [3] 12.5 µM | [4] 22 µM | [5] 7.8 µM | [6] 24 µM | [7] 29.2 µM | [8] 10.3 µM | [9] 3.15 µM | [10] 14.8 µM | [11] 3.1 µM | [12] 5.14 µM | [13] 19 µM | [14] 16.4 µM | [15] 26.4 µM | [16] 17.5 µM | [17] 3.53 µM | [18] 38.7 µM | [19] 17.3 µM | [20] 10.8 µM

CCOC(=O)C(C(=O)OCC)=C1NC2(c3ccccc3Nc3ccc(C)cc32)C(C(=O)OC)S1 (centres undefined)
inactive: [1] 14.2 µM | [2] 17.5 µM | [3] 15.9 µM | [4] 26.4 µM | [5] 4.92 µM | [6] 16.5 µM | [7] 42.2 µM | [8] 21.9 µM | [9] 14.9 µM | [10] 14.8 µM | [11] 13.6 µM | [12] 6.85 µM | [13] 27.6 µM | [14] 22.9 µM | [15] 20.9 µM | [16] 30.5 µM | [17] 21.4 µM | [18] > 100 µM | [19] 32.9 µM | [20] 43.6 µM

COC(=O)/C=C/C(=O)Nc1cc(Cl)c(Cl)cc1CC(=O)N(C)[C@H]1CCCC[C@@H]1N1CCCC1
inactive: [1] 22.1 µM | [2] 14.7 µM | [3] 7.67 µM | [4] 3.05 µM | [5] 5.74 µM | [6] 4.52 µM | [7] 5.04 µM | [8] 8.63 µM | [9] 13.8 µM | [10] 3.49 µM | [11] 1.79 µM | [12] 5.05 µM | [13] 7.41 µM | [14] 3.83 µM | [15] 15.8 µM | [16] 5.61 µM | [17] 2.85 µM | [18] 16.1 µM | [19] 6.61 µM | [20] 12.9 µM

Cn1c(=O)cc(/N=N\c2ccc(Cl)c(Cl)c2)[nH]c1=O
inactive: [1] > 100 µM | [2] 34.2 µM | [3] 56.8 µM | [4] 33.5 µM | [5] 30 µM | [6] > 100 µM | [7] > 100 µM | [8] 27.7 µM | [9] 49.2 µM | [10] 26.7 µM | [11] 25.6 µM | [12] 23.3 µM | [13] 20.3 µM | [14] 17.6 µM | [15] 24.8 µM | [16] 21.1 µM | [17] 21.2 µM | [18] 23.6 µM | [19] 18.7 µM | [20] 29 µM
